We go through 21 compounds from patent publication EP4035684A1, “AFFINITY ILLUDOFULVENE CONJUGATES” (AF Chemical LLC, priority 2019, dated 2022).

*1 amine or outer side, *2 acyl side, *3 side chain or, on linkers, in order; H or OH if unused. Where a SMILES comes first, the peptide text is derived from it. The star is where a group is joined. X2 = CC1=C(CCCN*)C2=C(C)C3(CC3)[C@@](C)(O)C(=O)C2=C1; X4 = CC1=C(C*)C2=C(C)C3(CC3)[C@@](C)(O)C(=O)C2=C1; Morpholide = C1CN(*)CCO1; CO = O=C([*:1])[*:2]

In general, CC50 refers to the concentration at which the toxic effect on the cells reaches its halfway point. The term GI50 denotes the concentration giving 50% growth inhibition. Broadly, the IC50 is the midpoint of a concentration-inhibition curve.

In data set [1] the test system is NCI 60 cell line panel. As to conditions: cited from earlier work; for CC50: human, nci 60 cell lines; for Mean TGI cytostatic / GI50: mean over NCI DTP 60 cell lines; for GI50: read-out: Mean GI50 inhibition.
The test system of data set [2] is HT29 (ER Negative). The data set can be described thus: Cytotoxicity, 2 hour exposure, cells not expressing the estrogen receptor. As to conditions: Homo sapiens, HT-29, N=3, mean ± SD. It is filed as cell-based. The text has this: (§1) MCF7 over express estrogen alpha-receptors.
(§2) MCF7 cells over express estrogen alpha-receptors.
(§3) The foregoing description of embodiments of the methods, systems, and components of the present invention has been provided for the purposes of illustration and description. It is not intended to be exhaustive or to limit the invention to the precise forms disclosed. Many modifications and variations will be apparent to one of ordinary skill in the relevant arts. For example, steps performed in the embodiments of the invention disclosed can be performed in alternate orders, certain steps can be omitted, and additional steps can be added. The embodiments were chosen and described in order to best explain the principles of the invention and its practical application, thereby enabling others skilled in the art to understand the invention for various embodiments and with various modifications that are suited to the particular used contemplated. Other embodiments are possible and are covered by the invention. Such embodiments will be apparent to persons skilled in the relevant art(s) based on the teachings contained herein. The breadth and scope of the present invention should not be limited by any of the above-described exemplary embodiments, but should be defined only in accordance with the following claims and their equivalents.

The test system of data set [3] is MCF7 (ER positive). As to the kind of experiment: Cytotoxicity, 2 hour exposure, cells expressing the estrogen receptor. It is filed as cell-based. As to conditions: Homo sapiens, N=3, mean ± SD.
Text: as §1, §2, §3

Data set [4] deals with MV522 cell line. As to the kind of experiment: 48 hour exposure, growth or viability by Trypan Blue Exclusion assay, target cell line. Type of data set: cell-based. Particulars: read-out: Mean IC50 value (nM) ± SD, N=3 unless otherwise indicated.
In data set [5] the test system is MV522 cell line. As to the kind of experiment: cells. It is filed as cell-based. As to conditions: read-out: Mean IC50 value (nM) ± SD, N=3 unless otherwise indicated, MV522 Target Cell Line, 2 hr exposure, 2 hr exposure.
Data set [6] has as its system 8392B cell line. The data set can be described thus: Two hour toxicity: inhibition of DNA synthesis activity, nontarget cell line. Type of data set: cell-based. As to conditions: read-out: Mean IC50 value (nM) ± SD, N=3 unless otherwise indicated; 8392B Nontarget Cell Line; 2 hr exposure; 8392B nontarget cell line, 2 hr exposure; mean ± SD, N=3 unless otherwise indicated.

The test system of data set [7] is 8392B cell line. The data set can be described thus: cells. Type of data set: cell-based.
In data set [8] the test system is NCI 60 cell line panel. As to the kind of experiment: NCI DTP 60 cell line screen assay. The text has this: An ADC is engulfed by a tumor cell, transported to the endosomes (pH < 6.0) and then into the lysozomes (pH < 4). […] 4) Cancer cells can become resistant to various toxins and drugs through the development of what is termed multi-drug resistance. This process is known to occur through several different mechanisms.

Data set [9] relates to Prostate LnCAP (positive PSA). As to the kind of experiment: Activity of PSA cleavable analogs against PSA positive cell line, 48 hour exposure. It is filed as cell-based. Particulars: N=3, mean ± SD.
Data set [10] concerns Prostate PC3 (negative PSA). As to the kind of experiment: Activity of PSA cleavable analogs against PSA negative cell line, 48 hour exposure. As to conditions: N=3, mean ± SD. Type of data set: cell-based.
For data set [11], the system named is Prostate DuPro (trace PSA). As to the kind of experiment: Activity of PSA cleavable analogs against trace PSA cell line, 48 hour exposure. It is filed as cell-based. As to conditions: N=3, mean ± SD.
Data set [12] concerns Prostate LnCAP (positive PSA). As to the kind of experiment: Activity of PSA cleavable analogs against PSA positive cell line, 48 hour exposure. As to conditions: Homo sapiens, N=3, mean ± SD. It is filed as cell-based.
For data set [13], the system named is Prostate PC3 (negative PSA). The data set can be described thus: Activity of PSA cleavable analogs against PSA negative cell line, 48 hour exposure. Type of data set: cell-based. As to conditions: N=3, mean ± SD. The source holds these as a separate data set.
Data set [14] deals with Prostate DuPro (trace PSA). The data set can be described thus: Activity of PSA cleavable analogs against trace PSA cell line, 48 hour exposure. Type of data set: cell-based. As to conditions: Homo sapiens, N=3, mean ± SD.
[15] abbreviates: MV522 target cell line, mean ± SD, N=3 unless otherwise indicated.
The mark [16] stands for this setting: read-out: Mean IC50 value (nM) ± SD, N=3 unless otherwise indicated, 8392B Nontarget Cell Line, 48 hr exposure, 8392B nontarget cell line, mean ± SD, N=3 unless otherwise indicated.

As for `CC1=C2C(=CC(C)(C)[C@@H]2O)C(=O)[C@](C)(O)C12CC2` [Illudin M], in data set [1], the CC50 is 291 nM, the “Mean TGI cytostatic” value was 20 nM and the GI50 was 3 nM. Also, half-maximal inhibition in data set [2] (IC50) required 520 ± 100 nM. Besides, the IC50 in [3] worked out at 480 ± 130 nM.
In the case of `CC1=CC2=C(C)C3(CC3)C(C)(O)C(=NO)C2=C1` (stereo not drawn) [compound 224], the IC50 was more than 130000 nM in data set [4], more than 200000 nM in data set [5] (setting [15]), more than 200000 nM in data set [6] and more than 130000 nM in [7] (setting [16]).
Consider `COc1cc2cc(c1Cl)N(C)C(=O)C[C@H](OC(=O)[C@H](C)N(C)C(C)=O)[C@]1(C)O[C@H]1[C@H](C)[C@@H]1C[C@@](O)(NC(=O)O1)[C@H](OC)/C=C/C=C(\C)C2` [Maytansine], for which, in data set [1], the “Mean TGI cytostatic” value is given as 318 nM.
Regarding `CC1=C2C(=CC(C)(CO[Si](C)(C)C(C)(C)C)C2OC(=O)c2ccc(S(=O)(=O)F)cc2)C(=O)C(C)(O)C12CC2` (stereo not drawn) [compound 219], the half-maximal inhibitory concentration (IC50) is more than 52 nM in data set [4], more than 52000 nM in data set [5] (setting [15]), more than 52000 nM in [6] and more than 52000 nM in data set [7] (setting [16]).
On to `CC(=O)OCC1(C)C=C2C(=O)[C@](C)(O)C3(CC3)C(C)=C2C1O` (stereo partly drawn) [compound 159], for which the IC50 in data set [4] is 120 ± 10 nM; in [5] (MV522, 2 h) it was 2700 ± 400 nM; in [6], 13700 nM; in data set [7] (48 h, read-out: Mean IC50 value (nM) ± SD, N=3 unless otherwise indicated, 8392B Nontarget Cell Line, 48 hr exposure), less than 10 nM. For the same compound, in [8] ([…]), the “MDR Activity” value is “Yes”. Also, the Cytotoxicity result in data set [8] (ability to actually kill tumor cells versus only inhibiting growth) is listed as “Yes”.
As to `CC1=C(CCCOC(=O)NCCCl)C2=C(C)C3(CC3)[C@@](C)(O)C(=O)C2=C1` [compound 238], the IC50 in data set [4] was determined as 57 ± 8 nM; in data set [5] (setting [15]), 780 ± 190 nM.
As to `C=C1C[C@H]2C=Nc3cc(OCCCOc4cc5c(cc4OC)C(=O)N4CC(=C)C[C@H]4C=N5)c(OC)cc3C(=O)N2C1` [Pyrrolobenzodiazepines], in [1], the “Mean TGI cytostatic” value is recorded as 302 nM and the GI50 was 7 nM.
As to `CO[C@@H]1[C@H](O)CC[C@]2(CO2)[C@H]1[C@@]1(C)O[C@@H]1CC=C(C)C` [Fumagillol], in [1], the “Mean TGI cytostatic” value is reported as 9,850 nM and the GI50 was 6130 nM.
For `CC(=O)N1C[C@H](O)C[C@H]1C(=O)N[C@@H](CO)C(=O)N[C@@H](CO)C(=O)N[C@H](C(=O)N[C@@H](CCC(N)=O)C(=O)N[C@@H](CO)C(=O)N[C@@H](CO)C(=O)N1CCC[C@H]1C(=O)O[C@@H]1C2=C(C)C3(CC3)[C@@](C)(O)C(=O)C2=C[C@@]1(C)CO[Si](C)(C)C(C)(C)C)C1CCCCC1` [compound 215], the figures for the IC50 in [4] and in data set [9] were 490 ± 120 nM and more than 20000 nM, respectively.
For `CC[C@H](C)[C@H](NC(=O)[C@H]1CCCCN1C)C(=O)N(COC(=O)CC(C)C)[C@H](C[C@@H](OC(C)=O)c1nc(C(=O)N[C@@H](Cc2ccc(O)cc2)C[C@H](C)C(=O)O)cs1)C(C)C` [Tubulysin A], in data set [1], the CC50 was more than 10000 nM, the “Mean TGI cytostatic” value is recorded as 1,318 nM and the GI50 was 12 nM.
In the case of Halichondrin B, in data set [1], the CC50 was more than 1000 nM and the “Mean TGI cytostatic” value is on record as 199 nM.
As to `CC1=C(Cn2ccc(=O)[nH]c2=O)C2=C(C)C3(CC3)[C@@](C)(O)C(=O)C2=C1` [compound 289], the IC50 in data set [4] is 530 ± 150 nM; in data set [5] (setting [15]) it was 51 ± 4 nM; in data set [6], more than 290000 nM; in data set [7] (setting [16]), more than 8800 nM.
`CC1=C2C(=CC(C)(O)C2O)C(=NO)C(C)(O)C12CC2` (stereo not drawn) [compound 225]: the IC50 is 55000 nM in [4], 47000 nM in data set [5] (setting [15]), more than 350000 nM in data set [6] and 33000 nM in data set [7] (setting [16]).
For `CC(=O)N1C[C@H](O)C[C@H]1C(=O)N[C@@H](CO)C(=O)N[C@@H](CO)C(=O)N[C@H](C(=O)N[C@@H](CCC(N)=O)C(=O)N[C@@H](CO)C(=O)N[C@@H](CO)C(=O)N1CCC[C@H]1C(=O)O[C@@H]1C2=C(C)C3(CC3)[C@@](C)(O)C(=O)C2=CC1(C)C)C1CCCCC1` [compound 216], the values for the IC50 in data set [10], in [9] and in [11] were 190 ± 10 nM, 190 ± 30 nM and 0.28 ± 0.06 µM, respectively.
For `CC1=C2C(=C[C@@](C)(CO)[C@@H]2O)C(=O)[C@](C)(O)C12CC2` [Illudin S], the “Mean TGI cytostatic” value in data set [1] is recorded as 64 nM. In data set [1], the GI50 was 10 nM. The IC50 in data set [12] is 15 ± 3 nM; in data set [13], 16 ± 5 nM; in data set [14] it was 11 ± 3 nM.
Turning to `CC1=C(CCCNS(=O)(=O)NO)C2=CC3(CC3)C(C)(O)C(=O)C2=C1` (stereo not drawn) [compound 265], the IC50 in data set [4] is 8 ± 1 nM; in [5] (setting [15]) it was 810 ± 20 nM.
Consider `CC(=O)OCC1(C)C(OC(C)=O)C2=C(C)C3(CC3)C(C)(O)C(=O)C23CC31` (stereo not drawn) [compound 250], for which the IC50 was 137000 nM in data set [4], 99000 nM in data set [5] (setting [15]), more than 275000 nM in data set [6] and 137000 nM in [7] (setting [16]).
Consider `CCCCCCCC/C=C/CCCCCCCC(=O)OCC1=C(C)C=C2C(=O)[C@](C)(O)C3(CC3)C(C)=C21` [compound 226], for which the IC50 in [4], in data set [5] (setting [15]), in data set [6] and in [7] (setting [16]) was more than 59000 nM each time.
`CC1=C(CCCNC(=O)[C@H](CC(C)C)NC(=O)[C@H](CCC(N)=O)NC(=O)[C@H](CC(C)C)NC(=O)[C@H](CCCCN)NC(=O)[C@H](CO)NC(=O)[C@H](CO)NC(=O)[C@H](Cc2c[nH]cn2)NC(=O)N2CCOCC2)C2=C(C)C3(CC3)[C@@](C)(O)C(=O)C2=C1` [compound 221] ({Morpholide-CO}-HSSKLQL-X2): the IC50 in data set [10] was more than 21000 nM; in data set [4] it was 2500 nM; in [9] it was 800 ± 100 nM; in data set [5] (setting [15]) it was more than 21000 nM; in [11] it was 13 µM; in [6], more than 21000 nM. The IC50 in data set [7] (setting [16]) was more than 21000 nM.
Take `CC1=C(CSC[C@H](NC(=O)[C@H](CCCNC(=N)N)NC(=O)CNC(=O)[C@H](CC(N)=O)NC(=O)[C@@H](N)CSCC2=C(C)C=C3C(=O)[C@](C)(O)C4(CC4)C(C)=C32)C(=O)O)C2=C(C)C3(CC3)[C@@](C)(O)C(=O)C2=C1` [compound 100] (H-C(X4)NGRC(X4)-OH): the results for the IC50 in data set [4] and in data set [5] (setting [15]) were 1700 ± 500 nM and more than 10000 nM, respectively.
In the case of `CC(=O)Oc1ccc(-n2nnnc2SCC2=C(C)C=C3C(=O)[C@](C)(O)C4(CC4)C(C)=C32)cc1` [compound 155], the IC50 in data set [4] was determined as 3600 ± 400 nM; in [5] (setting [15]) it was 8200 ± 1200 nM; in data set [6] it was 17000 nM; in [7] (setting [16]), 9100 ± 1100 nM.
